Laboratory results as given in publication PMC6073479, “Cecropin A Modulates Tight Junction-Related Protein Expression and Enhances the Barrier Function of Porcine Intestinal Epithelial Cells by Suppressing the MEK/ERK Pathway” (International Journal of Molecular Sciences, 2018).
No end group written: not given here.

Legend:
[1] = test system: E. coli adherence to IPEC-J2 cells; assay: Quantifying adherent bacteria (CFU); assay type: cell-based, Escherichia coli; conditions: n = 3
Method: To calculate the number of adherent E. coli, E. coli were cocultured with IPEC-J2 cells in DMEM/high-glucose medium (no penicillin/streptomycin, no FBS). Then, the cells were washed with PBS six times and lysed with 1% Triton X-100 for 20 min at room temperature. Next, 5 μL lysates were plated on MacConkey agar plates overnight. The total number of bacteria was quantified as CFUs.

F-actin polymerization = assay: Cell immunofluorescence of F-actin (FITC-phalloidin); assay type: cell-based, porcine; conditions: IPEC-J2 cells; FITC-phalloidin staining, 400×; n = 3
Method: (§1) To test the expression and location of tight junction proteins (ZO-1, occludin and claudin-1) and the cytoskeleton (F-actin), cell immunofluorescence was used. The IPEC-J2 cells were cultured and became confluent on the slide. After treatment, the cells were washed with PBS three times, fixed with 4% polyoxymethylene for 30 min, and then washed by PBS again three times. For F-actin staining, 0.5% Triton X-100 was added for 20 min. After that, 0.5% bovine serum albumin was added for 1 h, and then the primary antibodies were added and incubated with the cells at 4 °C overnight. The slides were then washed with PBST three times, and the FITC-labeled secondary antibody was added for 2 h. At last, the cell nuclei were stained by using DAPI (Santa Cruz Biotechnology, Dallas, TX, USA). The slides were then observed by using a fluorescence microscope. Primary antibodies including occludin (Abcam, Cambridge, UK), claudin-1 (CST, Danvers, MA, USA) and ZO-1 (Thermo Fisher Scientific, Waltham, MA, USA) were used. For staining F-actin, FITC-phalloidin (Sigma-Aldrich, St. Louis, MI, USA) was used.

ZO-1 protein expression = assay: Western blotting of ZO-1; assay type: cell-based, porcine; conditions: IPEC-J2 cells, versus control group, n = 3
Method: (§2) The total protein was extracted with lysis buffer. The concentration of protein was tested by using a BCA protein assay kit (Thermo Scientific, Waltham, MA, USA) and mixed with 5× loading buffer. 20 μg protein sample was loaded in each well. The supernatant was then separated by 10% SDS-PAGE and transferred onto a PVDF membrane (Millipore, Burlington, MA, USA). After blocking with 5% skimmed milk powder, the membrane was incubated with the appropriate primary antibodies overnight at 4 °C, followed by incubation with a horseradish peroxidase (HRP)-conjugated secondary antibody for 2 h. Bands were detected using an ECL Western Blotting Substrate (Thermo Scientific, Waltham, MA, USA). Band intensity was quantified using ImageJ software. The primary antibodies including β-actin, p-MEk, MEK, p-ERK, ERK, CDX2 were purchased from Cell Signaling Technology (CST, Danvers, MA, USA).

[2] = test system: occludin protein expression; assay: Western blotting of occludin; assay type: cell-based, porcine; conditions: IPEC-J2 cells, versus control group, n = 3
Method: as §2

IPEC-J2 cell monolayer [3] = assay: FITC-dextran paracellular permeability assay; assay type: cell-based, porcine; conditions: 12.5 μg/mL; 48 h and 72 h; FITC-dextran 5 mg/mL apical, 2 h; fluorescence 480/520 nm; p < 0.05; n = 6
Method: To evaluate the permeability of the monolayer intestinal cells, FITC-dextran was used. FITC-dextran (Sigma-Aldrich, St. Louis, MO, USA) was dissolved in PBS at 5 mg/mL. After the medium was discarded, 200 μL FITC-dextran was added to the apical compartment, and 500 μL PBS was added to the basal compartment and cultured for 2 h. Then, 100 μL liquid from each well was transferred to 96-well plates, and the […] was read at 480 nm excitation and 520 nm emission wavelengths. Then, the content of the FITC-dextran in the basal compartment was calculated using a standard curve.

IL-8 mRNA expression = assay: qPCR of IL-8 mRNA in IPEC-J2 cells cocultured with E. coli; assay type: cell-based, porcine; conditions: IPEC-J2 cells after coculture with E. coli, treatment for 48 h, compared to non-treated cells, n = 6
Method: (§3) Total RNA was extracted using TRIzol reagent according to the manufacturer’s instructions. Concentration and purity of RNA was checked by using a NanoDrop 2000. cDNA was generated from 1 μg total RNA using a First Strand cDNA Synthesis Kit (Thermo Scientific, Waltham, MA, USA). Quantitative PCR (qPCR) was performed to quantify mRNA expression levels of IL-6, IL-8 and TNF-α relative to that of a housekeeping gene, glyceraldehyde-3-phosphate dehydrogenase (GAPDH) by using SYBR Green mix (ABI) according to the manufacturer’s instructions.

ERK phosphorylation = assay: Western blotting of p-ERK(1/2)/ERK(1/2); assay type: cell-based, porcine; conditions: IPEC-J2 cells, versus control group, p < 0.01, n = 3
Method: as §2

IPEC-J2 cells = conditions: MTT; 1.5–12.5 μg/mL, 8 h; compared to control group
Method: IPEC-J2 cells were cultured at 37 °C in 100% humidity and 5% CO2 conditions with DMEM/F12 (Thermo, Waltham, MA, USA) supplemented with 5% fetal bovine serum (Gibco, Waltham, MA, USA) and 1% penicillin/streptomycin.
Thiazolyl blue tetrazolium bromide (MTT) was purchased from Sigma-Aldrich (St. Louis, MI, USA). The MTT was dissolved in PBS (5 mg/mL). The cytotoxicity of AMPs to IPEC-J2 cells was tested by using an MTT assay. A density of 1 × 10^5 cells in 180 μL medium per well was seeded in 96-well plates (Corning, New York, NY, USA), and then 20 μL AMPs was added. The final concentrations were 200, 100, 50, 25, 12.5, 6.25, 3.125, were 1.56 μg/mL. After 8 h culture, 20 μL MTT was added, and then the cells were continued to culture for 4 h. The supernatant was discarded, and 150 μL DMSO was added. After 30 min shaking at room temperature, the absorbance was measured at a wavelength of 490 nm. The cell viability was calculated by using the following equation:Cell viability = (ODControl − ODAMP)/ODControl × 100%

[4] = test system: gram-negative bacterial strains, such as E. coli, Salmonella and Pseudomonas aeruginosa; assay: MIC/MBC test; assay type: cell-based; conditions: gram-negative strains versus Staphylococcus aureus
Method: The Escherichia coli ATCC 35401, ATCC 35150, ATCC 25922, and SSI 82000, Pseudomonas aeruginosa ATCC 9027 and ATCC 27853, Salmonella ATCC13312 and ATCC9120, Salmonella typhimurium ATCC 14028, and Staphylococcus aureus ATCC 29213 strains were purchased from Guangdong Culture Collection Center. The Escherichia coli W25K strain was isolated from a piglet with diarrhea as described previously. The strains were cultured in LB medium to logarithmic growth period (OD = 0.5) and then were transferred to Mueller-Hinton Broth (MHB) medium for the minimum inhibitory concentration (MIC) or minimum bactericidal concentration (MBC) test.
The MIC test was assessed according to the process of the Clinical and Laboratory Standards Institute. The bacterial strains were diluted with MHB medium, and the concentration was 5 × 10^5 CFU/mL. Then, 180 μL bacterial suspension was transferred to 96-well cell plates. […] Then, the bacteria were cultured at 37 °C for 8 h.

[5] = test system: claudin-1 protein expression; assay: Western blotting of claudin-1; assay type: cell-based, porcine; conditions: IPEC-J2 cells, versus control group, n = 3
Method: as §2

[6] = test system: ZO-1, claudin-1 and occludin membrane distribution; assay: Cell immunofluorescence of tight junction proteins; assay type: cell-based, porcine; conditions: IPEC-J2 cells, 400×, n = 3
Method: as §1

MEK phosphorylation = assay: Western blotting of p-MEK/MEK; assay type: cell-based, porcine; conditions: IPEC-J2 cells, versus control group, p < 0.01, n = 3
Method: as §2

IPEC-J2 cell monolayer [7] = assay: Transepithelial electrical resistance (TER) measurement; assay type: cell-based, porcine
Method: To evaluate the barrier integrity of IPEC-J2 cells, the transepithelial resistance (TER) and was measured, and a permeability assay was performed. The initial TER was tested before the cells were seeded. IPEC-J2 cells were then seeded in a Transwell membrane insert ([…], 0.4 μm pore size, Corning) at a density of 7 × 10^5 cells/well. Then, 200 μL and 500 μL medium was added to the apical and basal compartments, respectively. Cecropin A (12.5 μg/mL) was added to the apical and basal compartments. The TER values were measured every day by using an ohm-meter fitted with chopstick electrodes (Millipore ESR-2; Burlington, MA, USA). Before each test, the plates were placed at room temperature for 30 min. The TER was calculated by using the following equation:TER (Ω·cm^2) = (TER − TERinitial) × 0.3

TNF-α mRNA expression = assay: qPCR of TNF-α mRNA in IPEC-J2 cells cocultured with E. coli; assay type: cell-based, porcine; conditions: IPEC-J2 cells after coculture with E. coli, treatment for 48 h, compared to non-treated cells, n = 6
Method: as §3

IL-6 mRNA expression = assay: qPCR of IL-6 mRNA in IPEC-J2 cells cocultured with E. coli; assay type: cell-based, porcine; conditions: IPEC-J2 cells after coculture with E. coli, treatment for 48 h, compared to non-treated cells, n = 6
Method: as §3

CDX2 protein level = assay: Western blotting of CDX2; assay type: cell-based, porcine; conditions: IPEC-J2 cells, compared with control group, p < 0.001, n = 3
Method: as §2

Compound | adherence of E. coli ([1]; IPEC-J2 cells, inhibitor 10 μM for 48 h, compared to cecropin A group) | F-actin polymerization / distribution (F-actin polymerization) | ZO-1 protein level (ZO-1 protein expression) | occludin protein level [2] | permeability of the IPEC-J2 cell monolayer (4 kDa FITC-dextran in basal compartment) (IPEC-J2 cell monolayer [3]) | IL-8 mRNA expression (IL-8 mRNA expression) | ERK phosphorylation (ERK phosphorylation) | IPEC-J2 cell viability (IPEC-J2 cells) | antibacterial activity against E. coli, Salmonella typhimurium and Pseudomonas aeruginosa compared with Staphylococcus aureus [4] | claudin-1 protein level [5] | membrane distribution of ZO-1, claudin-1 and occludin (TJs) [6] | MEK phosphorylation (MEK phosphorylation) | E. coli adherence (CFU of adherent bacteria) ([1]; IPEC-J2 cells pretreated with 3.125, 6.25 and 12.5 μg/mL for 48 h) | TER values (IPEC-J2 cell monolayer [7]; IPEC-J2 monolayer on Transwell, 12.5 μg/mL apical and basal, at 48 h and 72 h, compared to control cells, p < 0.01, n = 6) | TER values (IPEC-J2 cell monolayer [7]; inhibitor experiment (Figure 5), 24 and 48 h, compared with control group, n = 3) | TNF-α mRNA expression (TNF-α mRNA expression) | IL-6 mRNA expression (IL-6 mRNA expression) | CDX2 protein level (CDX2 protein level)
O=C(NOCC1CC1)c1ccc(F)c(F)c1Nc1ccc(I)cc1Cl [PD184352] | reduced | – | – | – | – | – | – | – | – | – | – | – | – | – | – | – | – | –
KWKLFKKIEKVGQNIRDGIIKAGPAVAVVGQATQIAK-NH2 (C-terminus assumed) [cecropin A] | – | much more polymerized at the cell–cell boundary | significantly upregulated | significantly upregulated | reduces the permeability | downregulated | downregulates | not reduced | much higher | significantly upregulated | much more polymerized at the cell–cell boundary | downregulates | reduced E. coli adherence in a dose-dependent manner | significantly increased | significantly higher | downregulated | downregulated | upregulated
